Test results: patent US20120122928A1 (priority 2010, published 2012)
Marks after values point to notes of the source that are not given here.

Assays:
Peronospora brassicae = assay: Peronospora test (oilseed rape seeds) / seed treatment; type: in vivo; settings: dose 50 g/dt, 14-day-old plants inoculated, incubated 7 days, infected leaf area, 100% = no disease
Protocol: Peronospora Test (Oilseed Rape Seeds)/Seed Treatment
The test was conducted under greenhouse conditions.
Oilseed rape seeds treated with an inventive active compound or a combination of inventive active compounds dissolved in N-methyl-2-pyrrolidone and diluted with water to the desired dose were sown in 6*6 cm vessels. The vessels contain 4 cm of a 1:1 mixture of steam-treated field soil and sand. The plants grew at 10° C.
14-day-old plants were inoculated with an aqueous spore suspension of Peronospora brassicae. The vessels containing the plants were incubated in a greenhouse at a temperature of 15° C. and a relative air humidity of 100% for 7 days.
The assessment of the test included the evaluation of the infected leaf area per plant. 0% means an efficiency corresponding to that of the control, while an efficiency of 100% means that no disease is observed.

Phytophthora infestans = type: in vivo; settings: young tomato plants sprayed, active ingredient concentration of 100 (unit not given); inoculated 1 day after treatment; evaluation 7 days after inoculation; 100% = no infection
Plasmopara viticola = assay: Plasmopara test (grapevine) / protective; type: in vivo; settings: young grapevine plants sprayed, active ingredient concentration 10 ppm; evaluation 6 days after inoculation; 100% = no infection
Protocol: Plasmopara Test (Grapevine)/Protective
To produce an appropriate active ingredient formulation, 1 part by weight of active ingredient is mixed with the specified amounts of solvent and emulsifier, and the concentrate is diluted with water to the desired concentration.
To test for protective efficacy, young plants are sprayed with the active ingredient formulation at the stated application rate. After the spray coating has dried on, the plants are inoculated with an aqueous spore suspension of Plasmopara viticola and then remain in an incubation cabin at approx. 20° C. and 100% relative air humidity for 1 day. Subsequently, the plants are placed in a greenhouse at approx. 21° C. and approx. 90% air humidity for 4 days. The plants are then moistened and placed in an incubation cabin for 1 day.
Evaluation follows 6 days after the inoculation. 0% means an efficacy which corresponds to that of the control, whereas an efficacy of 100% means that no infection is observed.
In this test, the following inventive compounds show, at an active ingredient concentration of 10 ppm, an efficacy of 70% or more: […]

[1] = LC-MS determination in the acidic range, pH 2.7, 0.1% aqueous formic acid and acetonitrile

Compound	% eff. (Peronospora brassicae)	% eff. (Phytophthora infestans)	chromatographic logP (physchem; pH 2.7)	chromatographic logP (physchem; pH 7.8)	% eff. (Plasmopara viticola)	Log P [a] [1]
O=C(Cn1nc(C(F)F)cc1C(F)F)N1CCC(c2nc(C3=NOC(COc4ccccc4)C3)cs2)CC1 (stereo not drawn) [I-2, 2-[3,5-Bis(difluoromethyl)-1H-pyrazol-1-yl]-1-(4-{4-[5-(phenoxymethyl)-4,5-dihydro-1,2-oxazol-3-yl]-1,3-thiazol-2-yl}piperidin-1-yl)ethanone]	95%	100%	3.22	3.25	97%	
O=C(Cn1nc(C(F)F)cc1C(F)F)N1CCC(c2nc(C3=NOC(COc4ccccc4F)C3)cs2)CC1 (stereo not drawn) [I-3]	98%	100%			100%	3.19
O=C(Cn1nc(C(F)F)cc1C(F)F)N1CCC(c2nc(C3=NOC(C(F)(F)c4ccccc4)C3)cs2)CC1 (stereo not drawn) [I-9, 2-[3,5-Bis(difluoromethyl)-1H-pyrazol-1-yl]-1-[4-(4-{5-[difluoro(phenyl)methyl]-4,5-dihydro-1,2-oxazol-3-yl}-1,3-thiazol-2-yl)piperidin-1-yl]ethanone]	97%	100%	3.41		100%	
COC(c1ccccc1)C1CC(c2csc(C3(F)CCN(C(=O)Cn4nc(C(F)F)cc4C(F)F)CC3)n2)=NO1 (stereo not drawn) [I-15, 2-[3,5-Bis(difluoromethyl)-1H-pyrazol-1-yl]-1-[4-fluoro-4-(4-{5-[methoxy(phenyl)methyl]-4,5-dihydro-1,2-oxazol-3-yl}-1,3-thiazol-2-yl)piperidin-1-yl]ethanone]		95%	3.56			
O=C(Nc1cc(C(F)F)ccc1C(F)F)N1CCC(c2nc(C3=NOC(C(F)(F)c4ccccc4)C3)cs2)CC1 (stereo not drawn) [I-16, N-[2,5-Bis(difluoromethyl)phenyl]-4-(4-{5-[difluoro(phenyl)methyl]-4,5-dihydro-1,2-oxazol-3-yl}-1,3-thiazol-2-yl)piperidine-1-carboxamide]		100%	3.64		87%	
FC(F)c1cc(C(F)F)n(CC(=S)N2CCC(c3nc(C4=NOC(C(F)(F)c5ccccc5)C4)cs3)CC2)n1 (stereo not drawn) [I-31, 2-[3,5-Bis(difluoromethyl)-1H-pyrazol-1-yl]-1-[4-(4-{5-[difluoro(phenyl)methyl]-4,5-dihydro-1,2-oxazol-3-yl}-1,3-thiazol-2-yl)piperidin-1-yl]ethanethione]		100%	3.88		85%	
O=C(Cn1nc(C(F)F)cc1C(F)F)N1CCC(c2nc(C3=NOC(COc4c(Br)cccc4Br)C3)cs2)CC1 (stereo not drawn) [I-36]	78%	100%			100%	3.9
O=C(Cn1nc(C(F)F)cc1C(F)F)N1CCC(c2nc(C3=NOC(COc4c(F)cccc4F)C3)cs2)CC1 (stereo not drawn) [I-43, 2-[3,5-Bis(difluoromethyl)-1H-pyrazol-1-yl]-1-[4-(4-{5-[(2,6-difluorophenoxy)methyl]-4,5-dihydro-1,2-oxazol-3-yl}-1,3-thiazol-2-yl)piperidin-1-yl]ethanone]	98%	95%	3.3	3.23	100%	
Cc1ccc(Cl)cc1NC(=O)N1CCC(c2nc(C3=NOC(COc4c(F)cccc4Cl)C3)cs2)CC1 (stereo not drawn) [I-51]		95%			93%	3.81
Cc1cc(C(F)(F)F)nn1CC(=O)N1CCC(c2nc(C3=NOC(COc4c(F)cccc4F)C3)cs2)CC1 (stereo not drawn) [I-54]		100%			97%	3.34
O=C(Cn1nc(C(F)F)cc1C(F)F)N1CCC(c2nc(C3=NOC(CSc4ccccc4F)C3)cs2)CC1 (stereo not drawn) [I-55]		94%			100%	3.54
Cc1ccc(C)c(NC(=O)N2CCC(c3nc(C4=NOC(COc5c(Cl)cccc5Cl)C4)cs3)CC2)c1 (stereo not drawn) [I-56]		94%			100%	3.89
O=C(Cn1nc(C(F)F)cc1C(F)F)N1CCC(c2nc(C3=NOC(C(F)(F)c4cccs4)C3)cs2)CC1 (stereo not drawn) [I-57]		95%			100%	3.33^[a]
O=C(Cn1nc(C(F)F)cc1C(F)F)N1CCC(c2nc(C3=NOC(CSc4c(Cl)cccc4Cl)C3)cs2)CC1 (stereo not drawn) [I-58]		94%			100%	3.99
Cc1ccc(Cl)cc1NC(=O)N1CCC(c2nc(C3=NOC(COc4c(Cl)cccc4Cl)C3)cs2)CC1 (stereo not drawn) [I-59]		94%			100%	4.08^[a]; 4.08^[b]
O=C(Cn1nc(C(F)F)cc1C(F)F)N1CCC(c2nc(C3=NOC(CSc4ccccc4Cl)C3)cs2)CC1 (stereo not drawn) [I-61]		91%			93%	3.68
Cc1cc(C(F)(F)F)nn1CC(=O)N1CCC(c2nc(C3=NOC(C(C)(C)c4c(F)cccc4F)C3)cs2)CC1 (stereo not drawn) [I-62]		91%			96%	4.09
O=C(Cn1nc(C(F)F)cc1C(F)F)N1CCC(c2nc(C3=NOC(CSc4ccccc4Br)C3)cs2)CC1 (stereo not drawn) [I-63]		91%			96%	3.72
Cc1cc(C(F)(F)F)nn1CC(=O)N1CCC(c2nc(C3=NOC(COc4c(Cl)cccc4Cl)C3)cs2)CC1 (stereo not drawn) [I-65]		84%			100%	3.9
CC(C)(c1c(F)cccc1F)C1CC(c2csc(C3CCN(C(=O)Cn4nc(C(F)F)cc4C(F)F)CC3)n2)=NO1 (stereo not drawn) [I-66]		94%			100%	4.05
Cc1cc(C(F)(F)F)nn1CC(=O)N1CCC(c2nc(C3=NOC(C(C)(C)c4c(F)cccc4Cl)C3)cs2)CC1 (stereo not drawn) [I-67]		94%			100%	4.43
CC(C)(c1c(F)cccc1F)C1CC(c2csc(C3CCN(C(=O)Nc4cc(C(F)F)ccc4C(F)F)CC3)n2)=NO1 (stereo not drawn) [I-68]		94%			96%	4.29
CC(C)(c1c(F)cccc1Cl)C1CC(c2csc(C3CCN(C(=O)Cn4nc(C(F)F)cc4C(F)F)CC3)n2)=NO1 (stereo not drawn) [I-69]		94%			95%	4.32
O=C(Cn1nc(C(F)F)cc1C(F)F)N1CCC(c2nc(C3=NOC(COc4ccccc4Cl)C3)cs2)CC1 (stereo not drawn) [I-71]		100%			100%	3.35
COc1cccc(C=O)c1OCC1CC(c2csc(C3CCN(C(=O)Cn4nc(C(F)F)cc4C(F)F)CC3)n2)=NO1 (stereo not drawn) [I-72]		95%			81%	3.02
O=C(Cn1nc(C(F)F)cc1C(F)F)N1CCC(c2nc(C3=NOC(COc4c(F)cccc4Cl)C3)cs2)CC1 (stereo not drawn) [I-74]		100%			100%	3.44
